# What was measured:
# adenosine A2A receptor = adenosine A2A receptor (Homo sapiens (Human), UniProt P29274); assay: Adenosine receptor activity assay (Table 1), A2A activity; type: biochemical; details: read-out: Ave A2A cAMP IC50
# adenosine A2B receptor = adenosine A2B receptor (Homo sapiens (Human), UniProt P29275); assay: Adenosine receptor activity assay (Table 1), A2B activity; type: biochemical; details: for Ratio: A2A activity to A2B activity (A2A/A2B); for IC50: read-out: Ave A2B cAMP IC50
# Chain of adenosine A2B receptor (P29275 whole entry): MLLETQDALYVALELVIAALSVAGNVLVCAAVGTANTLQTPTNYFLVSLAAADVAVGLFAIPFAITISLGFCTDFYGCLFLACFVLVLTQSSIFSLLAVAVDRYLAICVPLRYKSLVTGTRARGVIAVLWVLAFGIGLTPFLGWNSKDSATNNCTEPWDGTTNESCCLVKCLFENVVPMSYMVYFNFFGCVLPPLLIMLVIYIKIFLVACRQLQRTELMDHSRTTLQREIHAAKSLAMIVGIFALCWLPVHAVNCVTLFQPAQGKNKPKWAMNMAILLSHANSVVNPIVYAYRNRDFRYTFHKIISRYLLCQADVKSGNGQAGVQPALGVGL
# Chain of adenosine A2A receptor (P29274 whole entry): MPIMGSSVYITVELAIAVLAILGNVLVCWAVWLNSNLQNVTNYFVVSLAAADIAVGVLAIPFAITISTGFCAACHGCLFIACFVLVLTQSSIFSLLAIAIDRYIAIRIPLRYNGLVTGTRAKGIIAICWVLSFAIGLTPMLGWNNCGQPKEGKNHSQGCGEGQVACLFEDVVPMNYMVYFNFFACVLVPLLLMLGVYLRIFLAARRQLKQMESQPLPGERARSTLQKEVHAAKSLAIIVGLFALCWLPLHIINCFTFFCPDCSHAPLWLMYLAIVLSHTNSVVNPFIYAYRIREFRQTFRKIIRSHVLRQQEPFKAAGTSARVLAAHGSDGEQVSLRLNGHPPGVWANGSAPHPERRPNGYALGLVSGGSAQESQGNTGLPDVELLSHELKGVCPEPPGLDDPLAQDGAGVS
SMILES,IC50 (adenosine A2A receptor) [nM],Ratio (adenosine A2B receptor),IC50 (adenosine A2B receptor) [nM]
"O=C(c1nc(NCc2cc(F)cc(F)c2)nc2ccsc12)N1CCC1 [Example Z168, Azetidin-1-yl(2-((3,5-difluorobenzyl)amino)thieno[3,2-d]pyrimidin-4-yl)methanone]",100 to 500,36.14,10 to 50
"CC(C)(C)OC(=O)N1CC(NC(=O)c2nc(NCc3cncc(F)c3)nc3ccsc23)C1 [Example Z178, tert-Butyl 3-(2-(((5-fluoropyridin-3-yl)methyl)amino)thieno[3,2-d]pyrimidine-4-carboxamido)azetidine-1-carboxylate]",100 to 500,3.76,100 to 500
"C[C@H](Nc1nc(C(=O)NC2CN(C(=O)OC(C)(C)C)C2)c2sccc2n1)c1ccccn1 [Example Z179, tert-Butyl (S)-3-(2-((1-(pyridin-2-yl)ethyl)amino)thieno[3,2-d]pyrimidine-4-carboxamido)azetidine-1-carboxylate]",50 to 100,1.09,50 to 100
"C[C@H](Nc1nc(C(=O)N[C@@H](C)CO)c2sccc2n1)c1ccccn1 [Example Z181, N—((S)-1-Hydroxypropan-2-yl)-2-(((S)-1-(pyridin-2-yl)ethyl)amino)thieno[3,2-d]pyrimidine-4-carboxamide]",100 to 500,5.43,50 to 100
"C[C@H](CO)NC(=O)c1nc(N[C@@H](C)c2ccccn2)nc2ccsc12 [Example Z182, N—((R)-1-Hydroxypropan-2-yl)-2-(((S)-1-(pyridin-2-yl)ethyl)amino)thieno[3,2-d]pyrimidine-4-carboxamide]",100 to 500,5.92,50 to 100
"Nc1cc2nc(NCc3cccnc3)nc(C(=O)N3CCCC3)c2s1 [Example Z186, (6-Amino-2-((pyridin-3-ylmethyl)amino)thieno[3,2-d]pyrimidin-4-yl)(pyrrolidin-1-yl)methanone]",> 500,29.35,50 to 100
"C[C@H](Nc1nc(C(=O)NCC2CCC2)c2sccc2n1)c1ccccn1 [Example Z193, (S)—N-(Cyclobutylmethyl)-2-((1-(pyridin-2-yl)ethyl)amino)thieno[3,2-d]pyrimidine-4-carboxamide]",50 to 100,4.46,10 to 50
"C[C@H](Nc1nc(C(=O)NC2COC2)c2sccc2n1)c1ccccn1 [Example Z194, (S)—N-(Oxetan-3-yl)-2-((1-(pyridin-2-yl)ethyl)amino)thieno[3,2-d]pyrimidine-4-carboxamide]",100 to 500,5.79,10 to 50
"C[C@H](Nc1nc(C(=O)N2CC[C@@H](F)C2)c2sc(N)cc2n1)c1cccnc1 [Example Z195, (6-Amino-2-(((S)-1-(pyridin-3-yl)ethyl)amino)thieno[3,2-d]pyrimidin-4-yl)((R)-3-fluoropyrrolidin-1-yl)methanone]",100 to 500,17.59,10 to 50
"C[C@H](Nc1nc(C(=O)N2CC[C@H](O)C2)c2sc(N)cc2n1)c1cccnc1 [Example Z196, (6-Amino-2-(((S)-1-(pyridin-3-yl)ethyl)amino)thieno[3,2-d]pyrimidin-4-yl)((S)-3-hydroxypyrrolidin-1-yl)methanone]",> 500,102.27,10 to 50
"C[C@H](Nc1nc(C(=O)NCc2cncc(C(F)(F)F)c2)c2sccc2n1)c1ccccn1 [Example Z200, (S)-2-((1-(Pyridin-2-yl)ethyl)amino)-N-((5-(trifluoromethyl)pyridin-3-yl)methyl)thieno[3,2-d]pyrimidine-4-carboxamide]",100 to 500,1.81,100 to 500
"COCC(Nc1nc(C(=O)NC2CC2)c2sccc2n1)c1cccnc1 (stereo not drawn) [Example Z202, N-Cyclopropyl-2-((2-methoxy-1-(pyridin-3-yl)ethyl)amino)thieno[3,2-d]pyrimidine-4-carboxamide]",50 to 100,3.91,10 to 50
"C[C@H](Nc1nc(C(=O)N2CCC2)c2sc(N)cc2n1)c1cccnc1 [Example Z203, (S)-(6-Amino-2-((1-(pyridin-3-yl)ethyl)amino)thieno[3,2-d]pyrimidin-4-yl)(azetidin-1-yl)methanone]",100 to 500,33.74,10 to 50
"C[C@H](Nc1nc(C(=O)N2CC[C@H](F)C2)c2sc(N)cc2n1)c1cccnc1 [Example Z204, (6-Amino-2-(((S)-1-(pyridin-3-yl)ethyl)amino)thieno[3,2-d]pyrimidin-4-yl)((S)-3-fluoropyrrolidin-1-yl)methanone]",100 to 500,13.13,10 to 50
"C[C@H](Nc1nc(C(=O)N2CC(O)C2)c2sc(N)cc2n1)c1ccccn1 [Example Z205, (S)-(6-Amino-2-((1-(pyridin-2-yl)ethyl)amino)thieno[3,2-d]pyrimidin-4-yl)(3-hydroxyazetidin-1-yl)methanone]",100 to 500,27.10,10 to 50
"C[C@@H]1CCN(C(=O)c2nc(N[C@@H](C)c3ccccn3)nc3cc(N)sc23)C1 [Example Z206, (6-Amino-2-(((S)-1-(pyridin-2-yl)ethyl)amino)thieno[3,2-d]pyrimidin-4-yl)((R)-3-methylpyrrolidin-1-yl)methanone]",100 to 500,8.53,10 to 50
"CNc1cc2nc(N[C@@H](C)c3ccccn3)nc(C(=O)N3CC[C@@H](C)C3)c2s1 [Example Z207, (6-(Methylamino)-2-(((S)-1-(pyridin-2-yl)ethyl)amino)thieno[3,2-d]pyrimidin-4-yl)((R)-3-methylpyrrolidin-1-yl)methanone]",100 to 500,14.35,10 to 50
"C[C@H](Nc1nc(C(=O)N2CC[C@@H](O)C2)c2sc(N)cc2n1)c1ccccn1 [Example Z208, (6-Amino-2-(((S)-1-(pyridin-2-yl)ethyl)amino)thieno[3,2-d]pyrimidin-4-yl)((R)-3-hydroxypyrrolidin-1-yl)methanone]",> 500,18.79,50 to 100
"C[C@H](Nc1nc(C(=O)NCCO)c2sc(N)cc2n1)c1ccccn1 [Example Z209, (S)-6-Amino-N-(2-hydroxyethyl)-2-((1-(pyridin-2-yl)ethyl)amino)thieno[3,2-d]pyrimidine-4-carboxamide]",> 500,30.22,10 to 50
"CCc1cc2nc(N[C@@H](C)c3cccnc3)nc(C(=O)N3CCCC3)c2s1 [Example Z214, (S)-(6-Ethyl-2-((1-(pyridin-3-yl)ethyl)amino)thieno[3,2-d]pyrimidin-4-yl)(pyrrolidin-1-yl)methanone]",> 500,6.84,100 to 500
"C[C@H](Nc1nc(C(=O)NCCS(C)(=O)=O)c2sccc2n1)c1ccccn1 [Example Z215, (S)—N-(2-(Methylsulfonyl)ethyl)-2-((1-(pyridin-2-yl)ethyl)amino)thieno[3,2-d]pyrimidine-4-carboxamide]",100 to 500,2.95,100 to 500
"COCC(Nc1nc(C(=O)NC2COC2)c2sccc2n1)c1cccnc1 (stereo not drawn) [Example Z216, 2-((2-Methoxy-1-(pyridin-3-yl)ethyl)amino)-N-(oxetan-3-yl)thieno[3,2-d]pyrimidine-4-carboxamide]",100 to 500,5.35,10 to 50
"COCC(Nc1nc(C(=O)N2CC(OC)C2)c2sccc2n1)c1cccnc1 (stereo not drawn) [Example Z217, (2-((2-Methoxy-1-(pyridin-3-yl)ethyl)amino)thieno[3,2-d]pyrimidin-4-yl)(3-methoxyazetidin-1-yl)methanone]",50 to 100,5.70,10 to 50
"COCC(Nc1nc(C(=O)N[C@H]2C[C@@H](O)C2)c2sccc2n1)c1cccnc1 (stereo partly drawn) [Example Z218, N-((1s,3s)-3-Hydroxycyclobutyl)-2-((2-methoxy-1-(pyridin-3-yl)ethyl)amino)thieno[3,2-d]pyrimidine-4-carboxamide]",100 to 500,8.99,10 to 50
"C[C@H](Nc1nc(C(=O)N2CC[C@@H](O)C2)c2sc(N)cc2n1)c1cccnc1 [Example Z220, (6-Amino-2-(((S)-1-(pyridin-3-yl)ethyl)amino)thieno[3,2-d]pyrimidin-4-yl)((R)-3-hydroxypyrrolidin-1-yl)methanone]",> 500,44.45,100 to 500
"C[C@H](Nc1nc(C(=O)NCC2CCOCC2)c2sccc2n1)c1ccccn1 [Example Z227, (S)-2-((1-(Pyridin-2-yl)ethyl)amino)-N-((tetrahydro-2H-pyran-4-yl)methyl)thieno[3,2-d]pyrimidine-4-carboxamide]",100 to 500,4.59,10 to 50
"C[C@H](Nc1nc(C(=O)NC[C@H]2CCCN2C(=O)OC(C)(C)C)c2sccc2n1)c1ccccn1 [Example Z228, tert-Butyl (R)-2-((2-(((S)-1-(pyridin-2-yl)ethyl)amino)thieno[3,2-d]pyrimidine-4-carboxamido)methyl)pyrrolidine-1-carboxylate]",> 500,2.80,> 500
"C[C@H](Nc1nc(C(=O)NCC(C)(C)O)c2sccc2n1)c1ccccn1 [Example Z230, (S)—N-(2-Hydroxy-2-methylpropyl)-2-((1-(pyridin-2-yl)ethyl)amino)thieno[3,2-d]pyrimidine-4-carboxamide]",> 500,7.45,100 to 500
"CN(C(=O)OC(C)(C)C)C1CN(C(=O)c2nc(NCc3cncc(F)c3)nc3ccsc23)C1 [Example Z235, tert-Butyl (1-(2-(((5-fluoropyridin-3-yl)methyl)amino)thieno[3,2-d]pyrimidine-4-carbonyl)azetidin-3-yl)(methyl)carbamate]",100 to 500,2.57,50 to 100
